From patent US12129246B1, “Hydroquinazoline derivatives for the treatment of a disease or disorder” (Novartis AG, priority 2023, dated 2024)
Like-named read-outs stand apart in the source and are kept apart here.

What was measured:
[1] = target: T1, human NPR1 (Homo sapiens, UniProt P16066); assay: Cellular cGMP production assay, human NPR1 expressing CHO-K1 cells (CisBio HTRF); type: cell-based; details: for AC50: cGMP production, 30 min at 37° C., 12-point dose-response from 30 μM; for Human NPR1 Amax (% of ANP): maximum cGMP production as percentage of the maximum cGMP produced with ANP
T1 construct: host or cells: CHO-K1
T1 sequence (P16066 33-1061): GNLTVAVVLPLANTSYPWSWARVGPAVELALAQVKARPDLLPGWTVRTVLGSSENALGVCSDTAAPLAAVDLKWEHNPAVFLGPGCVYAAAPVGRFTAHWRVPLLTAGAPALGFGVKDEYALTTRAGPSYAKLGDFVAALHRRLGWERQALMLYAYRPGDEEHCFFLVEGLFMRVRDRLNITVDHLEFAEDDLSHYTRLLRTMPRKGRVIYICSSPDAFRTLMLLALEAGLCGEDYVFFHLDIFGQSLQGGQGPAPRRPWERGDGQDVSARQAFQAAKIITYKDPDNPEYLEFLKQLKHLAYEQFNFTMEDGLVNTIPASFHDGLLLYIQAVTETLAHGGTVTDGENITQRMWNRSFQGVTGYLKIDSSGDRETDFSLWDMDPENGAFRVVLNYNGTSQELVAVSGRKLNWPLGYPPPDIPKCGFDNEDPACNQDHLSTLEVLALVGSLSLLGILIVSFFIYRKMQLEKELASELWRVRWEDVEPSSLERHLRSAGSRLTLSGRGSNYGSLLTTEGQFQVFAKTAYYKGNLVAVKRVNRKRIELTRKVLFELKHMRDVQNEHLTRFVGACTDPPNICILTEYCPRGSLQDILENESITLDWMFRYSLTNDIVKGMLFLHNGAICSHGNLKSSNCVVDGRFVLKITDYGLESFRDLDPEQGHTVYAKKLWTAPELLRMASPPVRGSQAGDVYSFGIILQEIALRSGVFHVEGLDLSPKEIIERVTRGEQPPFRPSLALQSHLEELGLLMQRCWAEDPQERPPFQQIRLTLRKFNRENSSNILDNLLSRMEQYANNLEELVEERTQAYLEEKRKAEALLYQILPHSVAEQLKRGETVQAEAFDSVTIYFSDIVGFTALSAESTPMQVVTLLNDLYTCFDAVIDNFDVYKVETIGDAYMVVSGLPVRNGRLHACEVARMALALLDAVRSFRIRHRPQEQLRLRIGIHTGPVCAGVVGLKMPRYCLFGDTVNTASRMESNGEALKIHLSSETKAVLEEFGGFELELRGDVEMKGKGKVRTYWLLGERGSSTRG
Method in brief: (§1)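 Cells receive IBMX (1 mM) assay buffer plus test compound over twelve threefold dilutions starting at 30 μM, and cGMP accumulates for 30 min at 37 °C. Lysates are then incubated one hour at room temperature with d2-labelled cGMP and cryptate-labelled antibody before time-resolved fluorescence reading.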

[2] = target: monkey NPR1 (Macaca fascicularis, UniProt A0A7N9DBT9); assay: Cellular cGMP production assay, monkey NPR1 expressing CHO-K1 cells (CisBio HTRF); type: cell-based; details: for Monkey NPR1 Amax (% of ANP): maximum cGMP production as percentage of the maximum cGMP produced with ANP
monkey NPR1, sequence (A0A7N9DBT9 entry or part of it): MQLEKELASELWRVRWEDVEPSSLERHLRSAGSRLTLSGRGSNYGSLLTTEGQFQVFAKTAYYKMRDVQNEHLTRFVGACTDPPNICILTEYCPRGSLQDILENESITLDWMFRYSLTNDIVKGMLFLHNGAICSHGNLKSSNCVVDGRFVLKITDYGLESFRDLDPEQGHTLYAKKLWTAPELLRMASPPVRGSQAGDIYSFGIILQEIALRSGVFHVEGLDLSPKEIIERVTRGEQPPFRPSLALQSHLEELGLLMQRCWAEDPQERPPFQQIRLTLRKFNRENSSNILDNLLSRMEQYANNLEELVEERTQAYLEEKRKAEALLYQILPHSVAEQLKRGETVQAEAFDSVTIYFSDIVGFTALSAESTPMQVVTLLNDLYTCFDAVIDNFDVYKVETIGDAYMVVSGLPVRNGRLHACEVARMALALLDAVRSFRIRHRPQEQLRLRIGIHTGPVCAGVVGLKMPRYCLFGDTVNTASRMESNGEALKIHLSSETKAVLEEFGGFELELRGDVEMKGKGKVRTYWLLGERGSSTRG
Method in brief: as §1

[3] = cGMP production, monkey NPR1 CHO-K1 cells, 30 min at 37° C., 12-point dose-response from 30 μM, read-out: Monkey NPR1 AC50

Compound: CC[C@@H](Nc1nc2c(c(N[C@@H](CN3CCCC(C)(C)C3)c3cnn(C)c3)n1)C[C@H](c1ccccc1)CC2)[C@H]1CC[C@H](C(=O)O)CC1 [Compound 95, (1R,4r)-4-((R)-1-(((R)-4-(((R)-2-(3,3-dimethylpiperidin-1-yl)-1-(1-methyl-1H-pyrazol-4-yl)ethyl)amino)-6-phenyl-5,6,7,8-tetrahydroquinazolin-2-yl)amino)propyl)cyclohexane-1-carboxylic acid]
- AC50 [1]: 0.334 µM
- Human NPR1 Amax (% of ANP) [1]: 97.121 % of ANP
- AC50 [2, 3]: 0.173 µM
- Monkey NPR1 Amax (% of ANP) ([2]; monkey NPR1 CHO-K1 cells): 94.323 % of ANP

Compound: CC[C@@H]1CCCCN1C[C@H](Nc1nc(N[C@H](CC)[C@H]2CC[C@H](C(=O)O)CC2)nc2c1C[C@H](c1ccccc1)CC2)c1cnn(C)c1 [Compound 96, (1R,4r)-4-((R)-1-(((R)-4-(((R)-2-((R)-2-ethylpiperidin-1-yl)-1-(1-methyl-1H-pyrazol-4-yl)ethyl)amino)-6-phenyl-5,6,7,8-tetrahydroquinazolin-2-yl)amino)propyl)cyclohexane-1-carboxylic acid]
- AC50 [1]: 0.336 µM
- Human NPR1 Amax (% of ANP) [1]: 103.654 % of ANP
- AC50 [2, 3]: 0.106 µM
- Monkey NPR1 Amax (% of ANP) ([2]; monkey NPR1 CHO-K1 cells): 101.912 % of ANP

Compound: CC[C@H]([C@H]1CC[C@H](C(=O)O)CC1)N(C)c1nc2c(c(N[C@@H](CN3CCCCC3)c3cnn(C4CC4)c3)n1)C[C@H](c1ccccc1)CC2 [Compound 97, (1R,4r)-4-((R)-1-(((R)-4-(((R)-1-(1-cyclopropyl-1H-pyrazol-4-yl)-2-(piperidin-1-yl)ethyl)amino)-6-phenyl-5,6,7,8-tetrahydroquinazolin-2-yl)(methyl)amino)propyl)cyclohexane-1-carboxylic acid]
- AC50 [1]: 0.338 µM
- Human NPR1 Amax (% of ANP) [1]: 107.286 % of ANP
- AC50 [2, 3]: 0.192 µM
- Monkey NPR1 Amax (% of ANP) ([2]; monkey NPR1 CHO-K1 cells): 96.148 % of ANP

Compound: CC[C@H]([C@H]1CC[C@H](C(=O)O)CC1)N(C)c1nc2c(c(N[C@@H](CN3C4CC5CC(C4)CC3C5)c3cnn(C)c3)n1)C[C@H](c1ccccc1)CC2 [Compound 98, (1R,4r)-4-((R)-1-(((R)-4-(((R)-2-((1R,3R,5R,7R)-2-azaadamantan-2-yl)-1-(1-methyl-1H-pyrazol-4-yl)ethyl)amino)-6-phenyl-5,6,7,8-tetrahydroquinazolin-2-yl)(methyl)amino)propyl)cyclohexane-1-carboxylic acid]
- AC50 [1]: 0.346 µM
- Human NPR1 Amax (% of ANP) [1]: 100.756 % of ANP
- AC50 [2, 3]: 0.179 µM
- Monkey NPR1 Amax (% of ANP) ([2]; monkey NPR1 CHO-K1 cells): 105.533 % of ANP

Compound: CC[C@@H](Nc1nc2c(c(N[C@@H](CN3CCCC3)c3ccccc3)n1)CN(c1cccc(F)c1)CC2)[C@H]1CC[C@H](C(=O)O)CC1 [Compound 99, (1R,4r)-4-((R)-1-((6-(3-fluorophenyl)-4-(((R)-1-phenyl-2-(pyrrolidin-1-yl)ethyl)amino)-5,6,7,8-tetrahydropyrido[4,3-d]pyrimidin-2-yl)amino)propyl)cyclohexane-1-carboxylic acid]
- AC50 [1]: 0.351 µM
- Human NPR1 Amax (% of ANP) [1]: 102.315 % of ANP
- AC50 [2, 3]: 0.256 µM
- Monkey NPR1 Amax (% of ANP) ([2]; monkey NPR1 CHO-K1 cells): 94.886 % of ANP

Compound: CC[C@@H](Nc1nc2c(c(N[C@@H](CN3CCCCC3)c3cnn(C(C)C)c3)n1)C[C@H](c1ccccc1)CC2)[C@H]1CC[C@H](C(=O)O)CC1 [Compound 100, (1R,4r)-4-((R)-1-(((R)-4-(((R)-1-(1-isopropyl-1H-pyrazol-4-yl)-2-(piperidin-1-yl)ethyl)amino)-6-phenyl-5,6,7,8-tetrahydroquinazolin-2-yl)amino)propyl)cyclohexane-1-carboxylic acid]
- AC50 [1]: 0.354 µM
- Human NPR1 Amax (% of ANP) [1]: 92.848 % of ANP
- AC50 [2, 3]: 0.161 µM
- Monkey NPR1 Amax (% of ANP) ([2]; monkey NPR1 CHO-K1 cells): 105.588 % of ANP

Compound: CC[C@H]([C@H]1CC[C@H](C(=O)O)CC1)N(C)c1nc2c(c(N[C@@H](CN3CCC[C@H](C)C3)c3cnn(C)c3)n1)C[C@@H](c1ccccc1)CC2 [Compound 101, (1R,4r)-4-((R)-1-(methyl((S)-4-(((R)-1-(1-methyl-1H-pyrazol-4-yl)-2-((S)-3-methylpiperidin-1-yl)ethyl)amino)-6-phenyl-5,6,7,8-tetrahydroquinazolin-2-yl)amino)propyl)cyclohexane-1-carboxylic acid]
- AC50 [1]: 0.377 µM
- Human NPR1 Amax (% of ANP) [1]: 93.777 % of ANP
- AC50 [2, 3]: 0.335 µM
- Monkey NPR1 Amax (% of ANP) ([2]; monkey NPR1 CHO-K1 cells): 101.476 % of ANP

Compound: CC[C@H]([C@H]1CC[C@H](C(=O)O)CC1)N(C)c1nc2c(c(N[C@@H](CN3C4CCCC3CC4)c3cn(C)nc3C)n1)C[C@H](c1cccc(F)c1)CC2 [Compound 102, (1R,4r)-4-((1R)-1-(((6R)-4-(((1R)-2-(8-azabicyclo[3.2.1]octan-8-yl)-1-(1,3-dimethyl-1H-pyrazol-4-yl)ethyl)amino)-6-(3-fluorophenyl)-5,6,7,8-tetrahydroquinazolin-2-yl)(methyl)amino)propyl)cyclohexane-1-carboxylic acid]
- AC50 [1]: 0.382 µM
- Human NPR1 Amax (% of ANP) [1]: 96.769 % of ANP
- AC50 [2]: 0.279 µM
- Monkey NPR1 Amax (% of ANP) ([2]; monkey NPR1 CHO-K1 cells): 107.819 % of ANP

Compound: CC[C@H]([C@H]1CC[C@H](C(=O)O)CC1)N(C)c1nc2c(c(N[C@@H](CN3C4CCCC3CC4)c3cnn(C)c3)n1)C[C@H](c1ccccc1)CC2 [Compound 103, (1R,4r)-4-((1R)-1-(((6R)-4-(((1R)-2-(8-azabicyclo[3.2.1]octan-8-yl)-1-(1-methyl-1H-pyrazol-4-yl)ethyl)amino)-6-phenyl-5,6,7,8-tetrahydroquinazolin-2-yl)(methyl)amino)propyl)cyclohexane-1-carboxylic acid]
- AC50 [1]: 0.393 µM
- Human NPR1 Amax (% of ANP) [1]: 101.239 % of ANP
- AC50 [2]: 0.35 µM
- Monkey NPR1 Amax (% of ANP) ([2]; monkey NPR1 CHO-K1 cells): 106.030 % of ANP

Compound: CC[C@H]([C@H]1CC[C@H](C(=O)O)CC1)N(C)c1nc2c(c(N[C@@H](CN3CCCC[C@@H]3CO)c3cnn(CC)c3)n1)C[C@H](c1cccc(F)c1)CC2 [Compound 104, (1R,4r)-4-((R)-1-(((R)-4-(((R)-1-(1-ethyl-1H-pyrazol-4-yl)-2-((R)-2-(hydroxymethyl)piperidin-1-yl)ethyl)amino)-6-(3-fluorophenyl)-5,6,7,8-tetrahydroquinazolin-2-yl)(methyl)amino)propyl)cyclohexane-1-carboxylic acid]
- AC50 [1]: 0.396 µM
- Human NPR1 Amax (% of ANP) [1]: 106.357 % of ANP
- AC50 [2, 3]: 0.29 µM
- Monkey NPR1 Amax (% of ANP) ([2]; monkey NPR1 CHO-K1 cells): 109.908 % of ANP

Compound: CC[C@H]([C@H]1CC[C@H](C(=O)O)CC1)N(C)c1nc2c(c(N[C@@H](CN3C4CCCC3CC4)c3ccn(C)n3)n1)C[C@H](c1cccc(F)c1)CC2 [Compound 105, (1R,4r)-4-((1R)-1-(((6R)-4-(((1S)-2-(8-azabicyclo[3.2.1]octan-8-yl)-1-(1-methyl-1H-pyrazol-3-yl)ethyl)amino)-6-(3-fluorophenyl)-5,6,7,8-tetrahydroquinazolin-2-yl)(methyl)amino)propyl)cyclohexane-1-carboxylic acid]
- AC50 [1]: 0.396 µM
- Human NPR1 Amax (% of ANP) [1]: 99.945 % of ANP
- AC50 [2]: 0.272 µM
- Monkey NPR1 Amax (% of ANP) ([2]; monkey NPR1 CHO-K1 cells): 97.086 % of ANP

Compound: CC[C@H]([C@H]1CC[C@H](C(=O)O)CC1)N(C)c1nc2c(c(N[C@@H](CN3CCC[C@H](C)C3)c3cnn(C)c3)n1)CN(c1ccccc1F)CC2 [Compound 106, (1R,4r)-4-((R)-1-((6-(2-fluorophenyl)-4-(((R)-1-(1-methyl-1H-pyrazol-4-yl)-2-((S)-3-methylpiperidin-1-yl)ethyl)amino)-5,6,7,8-tetrahydropyrido[4,3-d]pyrimidin-2-yl)(methyl)amino)propyl)cyclohexane-1-carboxylic acid]
- AC50 [1]: 0.399 µM
- Human NPR1 Amax (% of ANP) [1]: 100.198 % of ANP
- AC50 [2, 3]: 0.254 µM
- Monkey NPR1 Amax (% of ANP) ([2]; monkey NPR1 CHO-K1 cells): 104.076 % of ANP

Compound: CC[C@H]([C@H]1CC[C@H](C(=O)O)CC1)N(C)c1nc2c(c(NC(CN3CCC[C@H](C)C3)c3cnn(CF)c3)n1)C[C@H](c1ccccc1)CC2 (stereo partly drawn) [Compound 107, (1R,4r)-4-((1R)-1-(((6R)-4-((1-(1-(fluoromethyl)-1H-pyrazol-4-yl)-2-((S)-3-methylpiperidin-1-yl)ethyl)amino)-6-phenyl-5,6,7,8-tetrahydroquinazolin-2-yl)(methyl)amino)propyl)cyclohexane-1-carboxylic acid]
- AC50 [1]: 0.404 µM
- Human NPR1 Amax (% of ANP) [1]: 97.223 % of ANP
- AC50 [2, 3]: 0.224 µM
- Monkey NPR1 Amax (% of ANP) ([2]; monkey NPR1 CHO-K1 cells): 100.163 % of ANP
